Assay results published in publication PMC7933985 (The Journal of General Physiology, 2021).
Positions count from the first letter of the chain named. Read-outs that look alike come from different tables or passages of the source. Each block holds one molecule with its values, some of them ahead of it.

Experiments:
MEC-4d = target: T1, MEC-4d (Caenorhabditis elegans, UniProt P24612, A713T); assay: Two-electrode voltage clamp of oocytes coexpressing MEC-2 and MEC-4d; format: cell-based, C. elegans; settings: for effect on MEC-4d current: 30 µM
T1 sequence (P24612 1-768 A713T): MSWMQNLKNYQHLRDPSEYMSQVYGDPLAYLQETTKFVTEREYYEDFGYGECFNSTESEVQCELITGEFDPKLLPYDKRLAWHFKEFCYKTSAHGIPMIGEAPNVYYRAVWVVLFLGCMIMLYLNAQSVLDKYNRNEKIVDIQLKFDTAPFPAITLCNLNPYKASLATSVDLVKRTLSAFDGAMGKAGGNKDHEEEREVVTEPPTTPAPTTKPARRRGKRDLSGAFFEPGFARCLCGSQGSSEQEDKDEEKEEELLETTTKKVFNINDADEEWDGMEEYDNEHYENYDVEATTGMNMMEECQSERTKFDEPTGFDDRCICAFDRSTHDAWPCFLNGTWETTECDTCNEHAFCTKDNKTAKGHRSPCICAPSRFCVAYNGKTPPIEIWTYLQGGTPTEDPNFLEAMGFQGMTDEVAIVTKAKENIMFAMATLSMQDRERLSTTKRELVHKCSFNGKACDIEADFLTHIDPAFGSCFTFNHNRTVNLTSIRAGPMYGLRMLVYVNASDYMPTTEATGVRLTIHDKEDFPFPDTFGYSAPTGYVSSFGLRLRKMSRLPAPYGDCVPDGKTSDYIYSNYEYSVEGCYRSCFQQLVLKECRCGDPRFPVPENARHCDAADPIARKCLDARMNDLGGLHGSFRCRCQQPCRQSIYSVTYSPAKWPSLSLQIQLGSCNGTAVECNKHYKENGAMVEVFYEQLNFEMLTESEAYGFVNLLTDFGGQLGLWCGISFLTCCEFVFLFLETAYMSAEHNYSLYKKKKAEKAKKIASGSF

DEGT-1d = assay: Two-electrode voltage clamp of oocytes coexpressing MEC-2 and DEGT-1d; format: cell-based, C. elegans; settings: for effect on DEGT-1d current: 30 µM; for ΔIdrug, change in current compared with uninjected oocytes: −85 mV, coexpressed with MEC-2
UNC-8d [1] = target: T2, UNC-8d (Caenorhabditis elegans, UniProt Q21974, G387E); assay: Two-electrode voltage clamp of oocytes coexpressing MEC-2 and UNC-8d; format: cell-based, C. elegans; settings: for effect on UNC-8d current: 30 µM; for IC50: control saline (divalent-containing solution)
T2 sequence (Q21974 1-737 isoform Q21974-4 G347E): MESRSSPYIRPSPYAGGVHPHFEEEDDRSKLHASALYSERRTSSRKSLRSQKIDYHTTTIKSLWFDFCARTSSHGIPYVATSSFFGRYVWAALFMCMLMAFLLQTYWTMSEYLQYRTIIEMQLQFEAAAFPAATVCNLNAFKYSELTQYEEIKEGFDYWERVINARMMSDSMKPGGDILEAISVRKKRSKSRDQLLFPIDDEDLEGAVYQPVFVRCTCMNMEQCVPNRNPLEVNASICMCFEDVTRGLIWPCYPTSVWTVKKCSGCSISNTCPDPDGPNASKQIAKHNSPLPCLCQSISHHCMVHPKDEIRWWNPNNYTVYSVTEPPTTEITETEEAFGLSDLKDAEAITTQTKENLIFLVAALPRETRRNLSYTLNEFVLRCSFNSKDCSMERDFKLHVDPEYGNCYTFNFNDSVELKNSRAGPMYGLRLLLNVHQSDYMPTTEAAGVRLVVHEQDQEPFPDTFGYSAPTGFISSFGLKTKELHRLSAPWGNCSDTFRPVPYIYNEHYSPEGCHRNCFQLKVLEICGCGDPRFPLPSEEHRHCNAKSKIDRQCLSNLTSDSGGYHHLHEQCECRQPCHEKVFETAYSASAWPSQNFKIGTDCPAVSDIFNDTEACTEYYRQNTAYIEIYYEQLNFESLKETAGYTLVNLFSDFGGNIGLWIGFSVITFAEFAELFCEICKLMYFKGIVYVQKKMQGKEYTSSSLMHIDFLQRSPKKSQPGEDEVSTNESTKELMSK

DEGT-1d alone = assay: Two-electrode voltage clamp of oocytes expressing DEGT-1d alone; format: cell-based, C. elegans; settings: 300 µM amiloride, −85 mV, DEGT-1 alone without MEC-2
MEC-2 alone = target: T3, MEC-2 alone (Caenorhabditis elegans, UniProt Q27433); assay: Two-electrode voltage clamp of oocytes expressing MEC-2 alone; format: cell-based, C. elegans; settings: 300 µM amiloride, −85 mV
T3 sequence (Q27433 1-481): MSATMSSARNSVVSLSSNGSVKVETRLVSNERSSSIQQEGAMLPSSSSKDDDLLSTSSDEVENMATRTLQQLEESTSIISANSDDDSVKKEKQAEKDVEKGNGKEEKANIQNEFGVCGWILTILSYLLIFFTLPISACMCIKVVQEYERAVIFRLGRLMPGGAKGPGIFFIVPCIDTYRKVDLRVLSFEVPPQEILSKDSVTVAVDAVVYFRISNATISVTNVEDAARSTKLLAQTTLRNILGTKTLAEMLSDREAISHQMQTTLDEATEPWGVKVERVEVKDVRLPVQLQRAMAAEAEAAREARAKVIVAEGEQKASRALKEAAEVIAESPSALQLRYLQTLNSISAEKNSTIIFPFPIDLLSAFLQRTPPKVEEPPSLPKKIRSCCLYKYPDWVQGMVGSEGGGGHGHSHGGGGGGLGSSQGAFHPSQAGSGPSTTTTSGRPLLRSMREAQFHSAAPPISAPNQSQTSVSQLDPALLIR

MEC-4d(E704K) = target: T4, MEC-4d(E704K) (Caenorhabditis elegans, UniProt P24612, A713T/E704K); assay: cell-based; design: species or system C. elegans; settings: for drug-induced change in current (Idrug) compared with absence of drug: 700 µM drug, −85 mV
T4 sequence (P24612 1-768 E704K/A713T): T1 sequence (P24612 1-768 A713T) with E704K

rASIC1a = settings: allosteric effect; ref Lynagh et al., 2017; cited from earlier work
uninjected oocytes = assay: Two-electrode voltage clamp of uninjected; format: cell-based, Xenopus laevis; settings: 30 µM
UNC-8d [2] = target: T2, UNC-8d; settings: −100 mV, ref Miller-Fleming et al., 2016, cited from earlier work

difference in drug-sensitive current compared with uninjected oocytes (ΔIdrug) (MEC-4d; 30 µM ibuprofen isomer): 4.7 µA
SMILES: CC(C)Cc1ccc([C@H](C)C(=O)O)cc1 [S-Ibu, S-ibuprofen]

effect on UNC-8d current (UNC-8d [1]): partially inhibit
SMILES: CC(C(=O)O)c1ccc(-c2ccccc2)c(F)c1 (stereo not shown) [Flurbiprofen, flurbiprofen]
effect on DEGT-1d current (DEGT-1d): partially inhibit

effect on MEC-4d current (MEC-4d): inhibited
effect on UNC-8d current (UNC-8d [1]): inhibited
SMILES: NC(=Nc1ccccc1)NC(=O)c1nc(Cl)c(N)nc1N [Phenamil, phenamil]

drug-induced change in current (Idrug) compared with absence of drug (MEC-4d(E704K)): 10.7 µA
effect on MEC-4d current (MEC-4d): seems to potentiate
effect on UNC-8d current (UNC-8d [1]): modestly inhibits
SMILES: CC(C)Cc1ccc(C(C)C(=O)O)cc1 (stereo not shown) [Ibuprofen, ibuprofen]
effect on DEGT-1d current (DEGT-1d): modestly inhibits
ΔIdrug, change in current compared with uninjected oocytes (DEGT-1d; 100 µM drug): 0.19 µA
ΔIdrug, change in current compared with uninjected oocytes (DEGT-1d; 300 µM drug): 0.322 µA
effect on rASIC1a (rASIC1a): inhibited
voltage dependence of potentiation (EC50 vs voltage) (MEC-4d): Neither drug showed evidence of voltage dependence
effect on current in control (uninjected) oocytes (uninjected oocytes): little if any effect

Second part, the molecule before the results:

SMILES: N=C(N)NC(=O)c1nc(Cl)c(N)nc1N [Amiloride, amiloride]
ΔIdrug, change in current compared with uninjected oocytes (DEGT-1d; 100 µM drug): 0.111 µA
ΔIdrug, change in current compared with uninjected oocytes (DEGT-1d; 300 µM drug): 0.0623 µA
ΔIdrug, change in current compared with uninjected oocytes (DEGT-1d alone): 0.0288 µA
effect on MEC-4d current (MEC-4d): inhibited
effect on UNC-8d current (UNC-8d [1]): inhibited
ΔIdrug, change in current compared with uninjected oocytes (MEC-2 alone): −0.0067 µA

SMILES: N=C(N)c1ccccc1 [Benzamidine, benzamidine]
effect on UNC-8d current (UNC-8d [1]): inhibited

SMILES: O=C(O)Cc1ccccc1Nc1c(Cl)cccc1Cl [Diclofenac, diclofenac]
effect on UNC-8d current (UNC-8d [1]): partially inhibit

SMILES: CC(=O)Oc1ccccc1C(=O)O [Aspirin, aspirin]
EC50 (MEC-4d(E704K)): 179 ± 56 µM
drug-induced change in current (Idrug) compared with absence of drug (MEC-4d(E704K)): 6.53 µA
EC50 (MEC-4d): 79.9 ± 3.7 µM
voltage dependence of potentiation (EC50 vs voltage) (MEC-4d): Neither drug showed evidence of voltage dependence

SMILES: O=C(O)c1ccccc1O [Salicylic acid, salicylic acid]
effect on DEGT-1d current (DEGT-1d): partially inhibit

SMILES: CCN(c1nc(N)c(C(=O)NC(=N)N)nc1Cl)C(C)C [EIPA, 5-(N-ethyl-N-isopropyl)amiloride]
effect on DEGT-1d current (DEGT-1d): no detectable effect
IC50 (MEC-4d): 3.06 ± 0.6 µM
voltage dependence of apparent affinity (block) (MEC-4d): insensitive to voltage
effect on MEC-4d current (MEC-4d): inhibited
effect on current in control (uninjected) oocytes (uninjected oocytes): no detectable effect
effect on UNC-8d current (UNC-8d [1]): inhibited

SMILES: NC(=NCc1ccccc1)NC(=O)c1nc(Cl)c(N)nc1N [Benzamil, benzamil]
IC50 (UNC-8d [2]; divalent-containing solution): 47 µM
IC50 (UNC-8d [2]; divalent-free solution): 119 µM
effect on MEC-4d current (MEC-4d): inhibited
effect on UNC-8d current (UNC-8d [1]): inhibited
IC50 (UNC-8d [1]; IC50, −60 mV): 14.8 ± 1.6 µM
IC50 (UNC-8d [1]; IC50, −100 mV): 15.1 µM
voltage dependence of block (UNC-8d [1]; voltages between −100 and −20 mV): not voltage-dependent
